Reference: the supplement of paper PMC10307832

Key:
Assay in all cases: relative viability (nuclei count vs DMSO), 5 days (fraction); higher = more cells survive
201T = test system: 201T
Outline: (§1)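 Relative viability is defined as nuclei in treated wells over nuclei in vehicle wells. Duplicate plates were run and medians reported. Lung cancer cell lines in 1536-well plates were dosed by pin tool one day after seeding, with one drug or with a fixed anchor-drug dose plus five library-drug doses (not always all listed) in √10 steps, and nuclei were counted after 5 days.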

NCI-H661 = test system: NCI-H661
Outline: as §1

H3255 = test system: H3255
Outline: as §1

NCI-H1666 = test system: NCI-H1666
Outline: as §1

NCI-H1915 = test system: NCI-H1915
Outline: as §1

NCI-H650 = test system: NCI-H650
Outline: as §1

COR-L 105 = test system: COR-L 105
Outline: as §1

RERF-LC-KJ = test system: RERF-LC-KJ
Outline: as §1

LCLC-97TM1 = test system: LCLC-97TM1
Outline: as §1

NCI-H2087 = test system: NCI-H2087
Outline: as §1

NCI-H2405 = test system: NCI-H2405
Outline: as §1

PC-14 = test system: PC-14
Outline: as §1

EPLC-272H = test system: EPLC-272H
Outline: as §1

NCI-H23 = test system: NCI-H23
Outline: as §1

NCI-H2126 = test system: NCI-H2126
Outline: as §1

NCI-H520 = test system: NCI-H520
Outline: as §1

LC-2-ad = test system: LC-2-ad
Outline: as §1

NCI-H322M = test system: NCI-H322M
Outline: as §1

HCC-827 = test system: HCC-827
Outline: as §1

NCI-H647 = test system: NCI-H647
Outline: as §1

HCC-78 = test system: HCC-78
Outline: as §1

NCI-H2347 = test system: NCI-H2347
Outline: as §1

Structure (SMILES): COc1cc(N2CCC(C(N)=O)CC2)ccc1Nc1nc(N)c(Cl)c(Nc2ccccc2S(=O)(=O)C(C)C)n1 [HG-5-88-01] + C[C@]1(O)C[C@@H](c2nc(-c3ccc4ccc(-c5ccccc5)nc4c3)c3c(N)nccn32)C1 [Linsitinib] (partner 1 µM)
- relative viability (201T; first compound 0.04 µM): 1.02
- relative viability (201T; first compound 0.1265 µM): 1.04
- relative viability (201T; first compound 0.4 µM): 1.04
- relative viability (201T; first compound 1.265 µM): 0.945
- relative viability (201T; first compound 4 µM): 1.19
- relative viability (NCI-H661; first compound 0.04 µM): 0.586
- relative viability (NCI-H661; first compound 0.1265 µM): 0.624
- relative viability (NCI-H661; first compound 0.4 µM): 0.682
- relative viability (NCI-H661; first compound 4 µM): 0.669
- relative viability (H3255; first compound 0.04 µM): 1.03
- relative viability (H3255; first compound 0.1265 µM): 0.913
- relative viability (H3255; first compound 0.4 µM): 0.939
- relative viability (H3255; first compound 4 µM): 0.734
- relative viability (NCI-H1666; first compound 0.04 µM): 0.958
- relative viability (NCI-H1666; first compound 0.1265 µM): 0.882
- relative viability (NCI-H1666; first compound 0.4 µM): 0.93
- relative viability (NCI-H1666; first compound 1.265 µM): 0.76
- relative viability (NCI-H1666; first compound 4 µM): 0.581
- relative viability (NCI-H1915; first compound 0.04 µM): 1.09
- relative viability (NCI-H1915; first compound 0.1265 µM): 1.11
- relative viability (NCI-H1915; first compound 0.4 µM): 1.14
- relative viability (NCI-H1915; first compound 1.265 µM): 1.15
- relative viability (NCI-H1915; first compound 4 µM): 0.674
- relative viability (NCI-H650; first compound 0.04 µM): 1.01
- relative viability (NCI-H650; first compound 0.1265 µM): 0.985
- relative viability (NCI-H650; first compound 0.4 µM): 0.835
- relative viability (NCI-H650; first compound 1.265 µM): 0.936
- relative viability (NCI-H650; first compound 4 µM): 0.492
- relative viability (COR-L 105; first compound 0.04 µM): 0.921
- relative viability (COR-L 105; first compound 0.1265 µM): 0.966
- relative viability (COR-L 105; first compound 0.4 µM): 1.04
- relative viability (COR-L 105; first compound 1.265 µM): 0.961
- relative viability (COR-L 105; first compound 4 µM): 0.751
- relative viability (RERF-LC-KJ; first compound 0.04 µM): 0.823
- relative viability (RERF-LC-KJ; first compound 0.1265 µM): 0.897
- relative viability (RERF-LC-KJ; first compound 0.4 µM): 0.849
- relative viability (RERF-LC-KJ; first compound 1.265 µM): 0.864
- relative viability (RERF-LC-KJ; first compound 4 µM): 0.539
- relative viability (LCLC-97TM1; first compound 0.04 µM): 0.183
- relative viability (LCLC-97TM1; first compound 0.1265 µM): 0.201
- relative viability (LCLC-97TM1; first compound 0.4 µM): 0.18
- relative viability (LCLC-97TM1; first compound 1.265 µM): 0.152
- relative viability (LCLC-97TM1; first compound 4 µM): 0.158
- relative viability (NCI-H2087; first compound 0.04 µM): 0.85
- relative viability (NCI-H2087; first compound 0.1265 µM): 1.07
- relative viability (NCI-H2087; first compound 0.4 µM): 0.912
- relative viability (NCI-H2087; first compound 1.265 µM): 0.964
- relative viability (NCI-H2087; first compound 4 µM): 0.888
- relative viability (NCI-H2405; first compound 0.04 µM): 1.06
- relative viability (NCI-H2405; first compound 0.1265 µM): 1.01
- relative viability (NCI-H2405; first compound 0.4 µM): 0.807
- relative viability (NCI-H2405; first compound 1.265 µM): 0.714
- relative viability (NCI-H2405; first compound 4 µM): 1.02
- relative viability (PC-14; first compound 0.04 µM): 0.977
- relative viability (PC-14; first compound 0.1265 µM): 1.02
- relative viability (PC-14; first compound 0.4 µM): 0.955
- relative viability (PC-14; first compound 1.265 µM): 0.917
- relative viability (PC-14; first compound 4 µM): 0.331
- relative viability (EPLC-272H; first compound 0.04 µM): 1.09
- relative viability (EPLC-272H; first compound 0.1265 µM): 1.25
- relative viability (EPLC-272H; first compound 0.4 µM): 1.38
- relative viability (EPLC-272H; first compound 1.265 µM): 1.02
- relative viability (EPLC-272H; first compound 4 µM): 0.264
- relative viability (NCI-H23; first compound 0.04 µM): 0.628
- relative viability (NCI-H23; first compound 0.1265 µM): 0.621
- relative viability (NCI-H23; first compound 0.4 µM): 0.652
- relative viability (NCI-H23; first compound 1.265 µM): 0.73
- relative viability (NCI-H23; first compound 4 µM): 0.61
- relative viability (NCI-H2126; first compound 0.04 µM): 0.641
- relative viability (NCI-H2126; first compound 0.1265 µM): 0.76
- relative viability (NCI-H2126; first compound 0.4 µM): 0.721
- relative viability (NCI-H2126; first compound 1.265 µM): 0.69
- relative viability (NCI-H2126; first compound 4 µM): 0.716
- relative viability (NCI-H520; first compound 0.04 µM): 0.926
- relative viability (NCI-H520; first compound 0.1265 µM): 0.832
- relative viability (NCI-H520; first compound 0.4 µM): 0.689
- relative viability (NCI-H520; first compound 1.265 µM): 1.18
- relative viability (NCI-H520; first compound 4 µM): 1.14
- relative viability (LC-2-ad; first compound 0.04 µM): 0.817
- relative viability (LC-2-ad; first compound 0.1265 µM): 0.861
- relative viability (LC-2-ad; first compound 0.4 µM): 0.862
- relative viability (LC-2-ad; first compound 1.265 µM): 0.852
- relative viability (LC-2-ad; first compound 4 µM): 0.92
- relative viability (NCI-H322M; first compound 0.04 µM): 0.892
- relative viability (NCI-H322M; first compound 0.1265 µM): 0.922
- relative viability (NCI-H322M; first compound 0.4 µM): 1.01
- relative viability (NCI-H322M; first compound 1.265 µM): 0.657
- relative viability (NCI-H322M; first compound 4 µM): 0.858
- relative viability (HCC-827; first compound 0.04 µM): 0.953
- relative viability (HCC-827; first compound 0.1265 µM): 1.04
- relative viability (HCC-827; first compound 0.4 µM): 0.934
- relative viability (HCC-827; first compound 1.265 µM): 0.955
- relative viability (HCC-827; first compound 4 µM): 0.69
- relative viability (NCI-H647; first compound 0.04 µM): 1.21
- relative viability (NCI-H647; first compound 0.1265 µM): 1.38
- relative viability (NCI-H647; first compound 1.265 µM): 1.08
- relative viability (NCI-H647; first compound 4 µM): 1.12
- relative viability (HCC-78; first compound 0.04 µM): 0.574
- relative viability (HCC-78; first compound 0.1265 µM): 0.401
- relative viability (HCC-78; first compound 0.4 µM): 0.273
- relative viability (HCC-78; first compound 1.265 µM): 0.222
- relative viability (HCC-78; first compound 4 µM): 0.263
- relative viability (NCI-H2347; first compound 0.04 µM): 0.988
- relative viability (NCI-H2347; first compound 0.1265 µM): 0.933
- relative viability (NCI-H2347; first compound 0.4 µM): 1.1
- relative viability (NCI-H2347; first compound 1.265 µM): 0.959
- relative viability (NCI-H2347; first compound 4 µM): 1.03
